Measurements reported in article PMC5028882, “Antiviral activities of peptide-based covalent inhibitors of the Enterovirus 71 3C protease” (Scientific Reports, 2016).
“Also recorded” adds a separate entry of the source. Like-named read-outs stand apart in the source and are kept apart here.

How the values were obtained:
[1] = Parallel artificial membrane permeability assay (PAMPA); assay type: in vitro ADME; settings: for Papp at 4 h, 50 μM: pH 7.4, 50 μM, 4 h incubation, read-out: Permeability (P) at pH 7.4
Description: PAMPA was conducted by GVK Biosciences (India) using Pion PAMPA Sandwich Plates (Pion Inc., USA). Briefly: test compounds were dissolved in buffer at pH 7.4 to make a 50 μM stock solution. 200 μL was then added to the donor compartment of the plate. The plate was inverted and 200 μL of buffer (pH 7.4) was added to the acceptor compartment. After incubation (4 hours), a 50 μL sample was analyzed by UV using a spectrophotometer. Experiments were conducted in triplicates. Compound permeability (P) was calculated using the formula:
where: CA = compound concentration in the acceptor compartment at 4 h, Ceq = compound concentration at equilibrium at 4 h, A = filter area (0.3 cm^2), VA = acceptor compartment volume (200 μL), VD = donor compartment volume (200 μL), t = incubation time (14,400 s). Compounds with a P value of <10 × 10^−6 cm.s^−1 are considered to have low permeability.

[2] = tested on: EV71-infected human RD cells; assay: Antiviral cellular assay, EV71-infected RD cells, virus titre by plaque assay; assay type: cell-based, human enterovirus 71 (EV71); settings: for Antiviral activity on EV71-infected RD cells (in words): virus titre reduction, up to 5 μM, 12 h; for EC50: Enterovirus A, read-out: EC50 for EV71 infections
Description: (§1) Human RD cells were cultured in DMEM/F-12 (Gibco) supplemented with 10% FBS (GE Healthcare) and the infection medium used for all infections and compound treatment contained was supplemented with 2% FBS. For the compound treatment assays, monolayers of RD cells were first infected with EV71 at a multiplicity of infection (MOI) of 1 for 1 hour at 37 °C, 5% CO2. The compounds were then introduced to the cells at different concentrations. Culture supernatant was collected at 12 hours post-treatment for determination of infectious virus titre by viral plaque assay. Each culture supernatant was 10-fold serially diluted and 100 μL was added, in triplicates, to a monolayer of RD cells in a 24-well format. The infection was allowed to proceed for 1 h at 37 °C, 5% CO2 before the virus was removed. The cells were then washed to remove unbound virus particles with PBS (pH 7.4) and overlaid with infection medium containing 0.5% agarose. The cells were incubated for 48 hours at 37 °C before they were fixed with 4% paraformaldehyde and stained with crystal violet. Plaques that formed were counted visually and the infectious virus titre was calculated, expressed as the average number of PFU per milliliter (PFU/mL) of sample. The 50% effective concentration, EC50, was determined for selected compounds by a non-linear regression graph fitting of the virus titre obtained at a minimum of 5 different compound concentrations and 0.05% DMSO was included as an untreated control.

EV71 3C protease [3] = molecular target: T1, EV71 3C protease (Human enterovirus 71, UniProt Q66478); assay: EV71 3C protease inhibition assay (chromogenic substrate succinyl-EALFQ-pNA); assay type: biochemical; settings: EV71 3C protease 6 μM, 2 h preincubation at 25 °C, pH 7.0; read-out: Inhibitory Potency, IC50
T1 sequence (Q66478 1549-1731): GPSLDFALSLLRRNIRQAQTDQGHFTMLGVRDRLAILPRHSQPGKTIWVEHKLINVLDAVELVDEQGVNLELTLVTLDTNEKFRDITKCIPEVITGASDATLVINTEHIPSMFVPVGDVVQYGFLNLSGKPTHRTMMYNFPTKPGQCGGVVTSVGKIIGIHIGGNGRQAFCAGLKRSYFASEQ
Description: EV71 3C protease inhibition assays were based on a published procedure[7] and performed in a buffer containing Tris-HCl (50 mM), NaCl (150 mM), EDTA (1 mM), glycerol (10% v/v) and DTT (2 mM) at pH 7.0. The protease (6 μM) and varying inhibitor concentrations were incubated at 25 °C for 2 h. The final DMSO concentration was maintained at 2%. After that, the chromogenic peptide substrate succinyl-EALFQ-pNA (Peptides International, USA) was added to make a final concentration of 200 μM. The contents were incubated at 25 °C for 2 h. Absorbance at 405 nm was measured with a plate reader at 30 °C. All experiments were conducted in duplicates. IC50 values were derived by fitting the initial velocity against the log [inhibitor] using GraphPad Prism 5 software (USA).

Coxsackievirus A6 (CA6) = assay: Antiviral assay, Coxsackievirus A6-infected RD cells; assay type: cell-based; settings: 100 nM and 1 μM, virus titre after 12 hours
Description: (§2) RD cells were infected with either Coxsackievirus A6 (CA6), Coxsackievirus A16 (CA16) (strain G-10, GenBank accession no. U05876), patient isolates of Coxsackievirus A6 (CA6), or Echovirus 7 (E7) and subjected to treatment with compound 9 at 100 nM or 1 μM or negative control 0.05% DMSO.
as §1, with “The cells were incubated for 48 hours at 37 °C before they were fixed with 4% paraformaldehyde and stained with crystal violet.” left out, “The 50% effective concentration, EC50, was determined for selected compounds by a non-linear regression graph fitting of the virus titre obtained at a minimum of 5 different compound concentrations and 0.05% DMSO was included as an untreated control.” left out

[4] = tested on: Coxsackievirus A16 (CA16); assay: Antiviral assay, Coxsackievirus A16-infected RD cells; assay type: cell-based; settings: 100 nM and 1 μM, virus titre after 12 hours
Description: as §2
as §1, with “The cells were incubated for 48 hours at 37 °C before they were fixed with 4% paraformaldehyde and stained with crystal violet.” left out, “The 50% effective concentration, EC50, was determined for selected compounds by a non-linear regression graph fitting of the virus titre obtained at a minimum of 5 different compound concentrations and 0.05% DMSO was included as an untreated control.” left out

Echovirus 7 (E7) = assay: Antiviral assay, Echovirus 7-infected RD cells; assay type: cell-based; settings: 100 nM and 1 μM, virus titre after 12 hours
Description: as §2
as §1, with “The cells were incubated for 48 hours at 37 °C before they were fixed with 4% paraformaldehyde and stained with crystal violet.” left out, “The 50% effective concentration, EC50, was determined for selected compounds by a non-linear regression graph fitting of the virus titre obtained at a minimum of 5 different compound concentrations and 0.05% DMSO was included as an untreated control.” left out

EV71 3C protease [5] = molecular target: T1, EV71 3C protease; settings: cited from earlier work; for IC50: EV71 3C protease (strain 5865/sin/000009), biochemical protease inhibition assay, read-out: Inhibitory Potency, IC50

In the case of CCOC(=O)/C=C/[C@H](C[C@@H]1CCNC1=O)NC(=O)[C@@H](CC(=O)[C@@H](NC(=O)c1nnccc1C)C(C)C)Cc1ccc(F)cc1 [Compound 7, ethyl-(S,E)-4-(2R,5S)-2-(4-fluorobenzyl)-6-methyl-5-(4-methylpyridazine-3-carboxamido)-4-oxoheptanamido-5-(S)-2-oxopyrrolidin-3-yl-pent-2-enoate], the Papp at 4 h, 50 μM [1] is reported as 11.6 ± 2.3 ×10⁻⁶ cm/s, the “Antiviral activity on EV71-infected RD cells (in words)” value [2] is reported as “inferior compared to Rupintrivir; also recorded: failed to demonstrate significant antiviral activity” and the IC50 (EV71 3C protease [3]) is reported as 5.2 ± 1 µM.

In the case of CCOC(=O)/C=C/[C@H](C[C@@H]1CCNC1=O)NC(=O)[C@@H](CC(=O)[C@@H](NC(=O)C(F)(F)F)C(C)C)Cc1ccc(F)cc1 [Compound 9], the “Antiviral activity against Coxsackievirus A6 (in words)” value (Coxsackievirus A6 (CA6)) is reported as “potent antiviral activity; also recorded: demonstrated antiviral activities”, the “Antiviral activity against Coxsackievirus A16 (in words)” value [4] is reported as “potent antiviral activity; also recorded: demonstrated antiviral activities” and the “Antiviral activity against Echovirus 7 (in words)” value (Echovirus 7 (E7)) is reported as “potent antiviral activity; also recorded: demonstrated antiviral activities”. For the same compound, the Papp at 4 h, 50 μM [1] was 32.7 ± 6.7 ×10⁻⁶ cm/s, the EC50 ([2]; EV71, RD) was 0.065 µM and the “Antiviral activity on EV71-infected RD cells (in words)” value [2] was “exhibited antiviral activity; also recorded: potent antiviral activity”. For the same compound, the IC50 (EV71 3C protease [3]) was 7.7 ± 0.8 µM.

With CCOC(=O)/C=C/[C@H](C[C@@H]1CCNC1=O)NC(=O)[C@H](Cc1ccc(F)cc1)NC(=O)[C@@H](NC(=O)c1cc(C)on1)C(C)C [Compound 3] the “Fold less permeable than Rupintrivir” value ([1]; pH 7.4) was “approximately 2 fold”, the Papp at 4 h, 50 μM [1] was 25.1 ± 3.6 ×10⁻⁶ cm/s and the “Antiviral activity on EV71-infected RD cells (in words)” value [2] was “significantly less potent than Rupintrivir”. For the same compound, the IC50 (EV71 3C protease [3]) was 6.2 ± 0.6 µM.

For CCOC(=O)/C=C/[C@H](C[C@@H]1CCNC1=O)NC(=O)[C@@H](CC(=O)[C@@H](NC(=O)c1ccccn1)C(C)C)Cc1ccc(F)cc1 [Compound 5, ethyl-(S,E)-4-(2R,5S)-2-(4-fluorobenzyl)-6-methyl-4-oxo-5-picolinamidoheptanamido-5-(S)-2-oxopyrrolidin-3-yl-pent-2-enoate], the Papp at 4 h, 50 μM [1] was 14.9 ± 3.3 ×10⁻⁶ cm/s, the “Antiviral activity on EV71-infected RD cells (in words)” value [2] was “did not exhibit significant antiviral activity” and the IC50 (EV71 3C protease [3]) was 22.4 ± 3.5 µM.

In the case of CCOC(=O)/C=C/[C@H](C[C@@H]1CCNC1=O)NC(=O)[C@@H](CC(=O)[C@@H](NC(=O)c1cc(C)on1)C(C)C)Cc1ccc(F)cc1 [Compound 1, Rupintrivir, reference compound], the “Antiviral activity against Coxsackievirus A6 (in words)” value (Coxsackievirus A6 (CA6)) is listed as “demonstrated antiviral activities”, the IC50 (EV71 3C protease [5]) is listed as 7.3 ± 0.8 µM and the “Inhibition of EV71 3C protease (in words)” value (EV71 3C protease [5]; earlier reports) is listed as “micromolar potency”. For the same compound, the “Antiviral activity against Coxsackievirus A16 (in words)” value [4] was “demonstrated antiviral activities”, the “Antiviral activity against Echovirus 7 (in words)” value (Echovirus 7 (E7)) was “demonstrated antiviral activities” and the “Membrane permeability (in words)” value ([1]; pH 7.4) was “highly membrane permeable”. The Papp at 4 h, 50 μM [1] was 46.9 ± 4.7 ×10⁻⁶ cm/s, the EC50 ([2]; EV71-infected RD cells, virus titre by plaque assay) was 0.016 µM and the “Antiviral activity on EV71-infected RD cells (in words)” value [2] was “significant reduction in viral titre”.

In the case of CCOC(=O)/C=C/[C@H](C[C@@H]1CCNC1=O)NC(=O)[C@@H]1[C@@H](c2ccccc2)CCN1C(=O)[C@@H](NC(=O)c1cc(C)on1)C(C)C [Compound 2], the IC50 (EV71 3C protease [5]) is given as 3.2 ± 0.5 µM, the “Fold more potent than Rupintrivir in the protease inhibition assay” value (EV71 3C protease [5]; IC50 compared with Rupintrivir) is given as 2 fold and the “Fold less permeable than Rupintrivir” value ([1]; pH 7.4) is given as “approximately 7 fold”. For the same compound, the Papp at 4 h, 50 μM [1] was 7.1 ± 0.9 ×10⁻⁶ cm/s and the “Antiviral activity on EV71-infected RD cells (in words)” value [2] was “failed to demonstrate significant antiviral activity; also recorded: weakly active”.

In the case of CCOC(=O)/C=C/[C@H](C[C@@H]1CCNC1=O)NC(=O)[C@@H](CC(=O)[C@@H](NC(=O)c1cccnn1)C(C)C)Cc1ccc(F)cc1 [Compound 4, ethyl-(S,E)-4-(2R,5S)-2-(4-fluorobenzyl)-6-methyl-4-oxo-5-pyridazine-3-carboxamidoheptanamido-5-(S)-2-oxopyrrolidin-3-yl-pent-2-enoate], the Papp at 4 h, 50 μM [1] is reported as 12.6 ± 1.8 ×10⁻⁶ cm/s, the “Antiviral activity on EV71-infected RD cells (in words)” value [2] is reported as “significantly reduced” and the IC50 (EV71 3C protease [3]) is reported as 9.3 ± 0.6 µM.

With CCOC(=O)/C=C/[C@H](C[C@@H]1CCNC1=O)NC(=O)[C@@H](CC(=O)[C@@H](NC(=O)C(C)(C)C)C(C)C)Cc1ccc(F)cc1 [Compound 10, ethyl-(S,E)-4-(2R,5S)-2-(4-fluorobenzyl)-6-methyl-4-oxo-5-pivalamidoheptanamido-5-(S)-2-oxopyrrolidin-3-yl-pent-2-enoate] the Papp at 4 h, 50 μM [1] was 15 ± 2.6 ×10⁻⁶ cm/s, the “Antiviral activity on EV71-infected RD cells (in words)” value [2] was “abrogation of both biochemical and cellular activity” and the IC50 (EV71 3C protease [3]) was greater than 100 µM.

With CCOC(=O)/C=C/[C@H](C[C@@H]1CCNC1=O)NC(=O)[C@@H](CC(=O)[C@@H](NC(=O)c1ccc(C)nn1)C(C)C)Cc1ccc(F)cc1 [Compound 8, ethyl-(S,E)-4-(2R,5S)-2-(4-fluorobenzyl)-6-methyl-5-(6-methylpyridazine-3-carboxamido)-4-oxoheptanamido-5-(S)-2-oxopyrrolidin-3-yl-pent-2-enoate] the Papp at 4 h, 50 μM [1] was 12.6 ± 0.7 ×10⁻⁶ cm/s, the “Antiviral activity on EV71-infected RD cells (in words)” value [2] was “inferior compared to Rupintrivir; also recorded: failed to demonstrate significant antiviral activity” and the IC50 (EV71 3C protease [3]) was 3.7 ± 0.6 µM.

For CCOC(=O)/C=C/[C@H](C[C@@H]1CCNC1=O)NC(=O)[C@@H](CC(=O)[C@@H](NC(=O)c1cccnc1)C(C)C)Cc1ccc(F)cc1 [Compound 6, ethyl-(S,E)-4-(2R,5S)-2-(4-fluorobenzyl)-6-methyl-5-nicotinamido-4-oxoheptanamido-5-(S)-2-oxopyrrolidin-3-yl-pent-2-enoate], the Papp at 4 h, 50 μM [1] was 16.9 ± 5.2 ×10⁻⁶ cm/s, the “Antiviral activity on EV71-infected RD cells (in words)” value [2] was “did not exhibit significant antiviral activity” and the IC50 (EV71 3C protease [3]) was greater than 100 µM.

In the case of CCOC(=O)/C=C/[C@H](C[C@@H]1CCNC1=O)NC(=O)[C@@H](CC(=O)[C@@H](NC(=O)C(C)C)C(C)C)Cc1ccc(F)cc1 [Compound 11, ethyl-(S,E)-4-(2R,5S)-2-(4-fluorobenzyl)-5-isobutyramido-6-methyl-4-oxoheptanamido-5-(S)-2-oxopyrrolidin-3-yl-pent-2-enoate], the Papp at 4 h, 50 μM [1] is reported as 16.9 ± 0.8 ×10⁻⁶ cm/s, the “Antiviral activity on EV71-infected RD cells (in words)” value [2] is reported as “significantly reduced antiviral activity” and the IC50 (EV71 3C protease [3]) is reported as 11.7 ± 0.7 µM.
